Source: PMC6199744, “Development of Chemical Proteomics for the Folateome and Analysis of the Kinetoplastid Folateome” (ACS Infectious Diseases, 2018)
Like-named read-outs stand apart in the source and are kept apart here.

Tested on: T. brucei lysate proteins
Type: binding, Trypanosoma brucei
Conditions: for abundance relative to vehicle: X016405, bead mixture, free compound 100.0uM, Trypanosoma brucei

SMILES: Nc1nc2cccc(-c3ccccc3)c2n1Cc1ccc(Cl)c(Cl)c1 [compound 3]
- abundance relative to vehicle (protein TB427.02.1850): 0.84
- abundance relative to vehicle (protein TB427.06.4760): 0.94
- abundance relative to vehicle (protein TB427.07.3620): 0.78
- abundance relative to vehicle (protein TB427.08.1880): 1.20
- fold change - vehicle control (protein RHS6A (CZT00028360.1)): 0.89
- fold change - vehicle control (protein TB09.160.1250 HY[…], CONSERVED): 0.88
- fold change - vehicle control (protein TB09.160.3670 RIBOSOMAL PROTEIN S6, PUTATIVE): 0.98
- fold change - vehicle control (protein TB09.211.2630 60S RIBOSOMAL PROTEIN L23, PUTATIVE): 0.92
- fold change - vehicle control (protein TB09.211.4513 KIN[…] PROTEIN KMP-11): 1.1
- fold change - vehicle control (protein TB11.V4.0005 RIBONUCLEOSIDE-DIPHOSPHATE REDUCTASE SMALL CHAIN): 0.81
- fold change - vehicle control (protein TB11.01.0870 R[…] A, 51KDA SUBUNIT, PUTATIVE): 1.11
- fold change - vehicle control (protein TB11.01.2560 40S RIBOSOMAL PROTEIN SA, PUTATIVE): 0.92
- fold change - vehicle control (protein TB11.01.4880 HY[…], CONSERVED): 0.9
- fold change - vehicle control (protein TB11.01.7090 HY[…], CONSERVED): 0.87
- fold change - vehicle control (protein TB11.02.2510 GUANINE NUCLEOTIDE-BINDING BETA SUBUNIT-LIKE PROTEIN): 0.96
- fold change - vehicle control (protein TB11.02.4170 40S RIBOSOMAL PROTEIN S5, PUTATIVE): 0.92
- fold change - vehicle control (protein TB11.03.0250 C[…]): 1.22
- fold change - vehicle control (protein TB11.46.0009 HY[…], CONSERVED): 0.89
- fold change - vehicle control (protein TB427TMP.01.0620 HY[…], CONSERVED): 0.76
- fold change - vehicle control (protein TB427TMP.01.1475 40S RIBOSOMAL PROTEIN S27, PUTATIVE): 1.02
- fold change - vehicle control (protein TB427TMP.01.4280 HY[…], CONSERVED): 0.82
- fold change - vehicle control (protein TB427TMP.01.4650 HY[…], CONSERVED): 0.97
- fold change - vehicle control (protein TB427TMP.01.4810 HY[…], CONSERVED): 0.99
- fold change - vehicle control (protein TB427TMP.01.5680 HY[…], CONSERVED): 0.54
- fold change - vehicle control (protein TB427TMP.01.8390 HY[…], CONSERVED): 0.84
- fold change - vehicle control (protein TB427TMP.02.0230 HY[…], CONSERVED): 1.04
- fold change - vehicle control (protein TB427TMP.02.0460 NUCLEOPORIN): 0.82
- fold change - vehicle control (protein TB427TMP.02.1106 NUCLEOBASE/NUCLEOSIDE TRANSPORTER 8 1): 1.05
- fold change - vehicle control (protein TB427TMP.160.2050 ENDO-BETA-N-ACETYLGLUCOSAMINIDASE, PUTATIVE): 0.92
- fold change - vehicle control (protein TB427TMP.160.4310 GLUTAMATE DEHYDROGENASE): 0.97
- fold change - vehicle control (protein TB427TMP.160.4450 40S RIBOSOMAL PROTEIN S3, PUTATIVE): 0.97
- fold change - vehicle control (protein TB427TMP.160.4630 HY[…], CONSERVED): 0.86
- fold change - vehicle control (protein TB427TMP.160.5200 HY[…], CONSERVED): 0.69
- fold change - vehicle control (protein TB427TMP.160.5670 HY[…], CONSERVED): 0.83
- fold change - vehicle control (protein TB427TMP.211.0930 POLYADENYLATE-BINDING PROTEIN 1): 0.97
- fold change - vehicle control (protein TB427TMP.211.1750 MIT[…] PROTEIN, PUTATIVE): 0.88
- fold change - vehicle control (protein TB427TMP.211.3510 ATP-DEPENDENT DEAD/H RNA HELICASE, PUTATIVE): 1.06
- fold change - vehicle control (protein TB427TMP.211.4540 RNA-BINDING PROTEIN, PUTATIVE): 1.05
- fold change - vehicle control (protein TB427TMP.244.2840 HY[…], CONSERVED): 0.92
- fold change - vehicle control (protein TB427.01.1240 CYTIDINE TR[…], PUTATIVE): 0.84
- fold change - vehicle control (protein TB427.01.2570 COATOMER BETA SUBUNIT): 0.73
- fold change - vehicle control (protein TB427.01.3910 HY[…], CONSERVED): 0.78
- fold change - vehicle control (protein TB427.02.450 RETRO[…] SPOT (RHS) PROTEIN, PUTATIVE): 0.81
- fold change - vehicle control (protein TB427.02.6240): 1.08
- fold change - vehicle control (protein TB427.04.3350 HY[…], CONSERVED): 0.72
- fold change - vehicle control (protein TB427.04.3890 ATP-DEPENDENT RNA HELICASE, PUTATIVE): 0.92
- fold change - vehicle control (protein TB427.04.4870 AMINO ACID TRANSPORTER, PUTATIVE): 0.87
- fold change - vehicle control (protein TB427.04.750 50S RIBOSOMAL PROTEIN L7AE, PUTATIVE): 1.12
- fold change - vehicle control (protein TB427.04.960 HY[…], CONSERVED): 0.88
- fold change - vehicle control (protein TB427.05.1490 HY[…], CONSERVED): 0.8
- fold change - vehicle control (protein TB427.05.1780 HY[…], CONSERVED): 0.77
- fold change - vehicle control (protein TB427.05.3030 INTR[…] PROTEIN IFT122, PUTATIVE): 0.89
- fold change - vehicle control (protein TB427.05.4560 GUANINE DEAMINASE, PUTATIVE): 0.7
- fold change - vehicle control (protein TB427.06.2150 CELL DIVISION CYCLE PROTEIN 16, PUTATIVE): 0.83
- fold change - vehicle control (protein TB427.06.3110 PROTEIN KINASE, PUTATIVE (CRK11)): 0.87
- fold change - vehicle control (protein TB427.06.5110 DAMAGE-SPECIFIC DNA BINDING PROTEIN, PUTATIVE): 0.98
- fold change - vehicle control (protein TB427.07.2670 HY[…], CONSERVED): 3.19
- fold change - vehicle control (protein TB427.07.3040 HY[…], CONSERVED): 0.98
- fold change - vehicle control (protein TB427.07.3530 HY[…], CONSERVED): 0.87
- fold change - vehicle control (protein TB427.07.4970 GLUTAMINE SYNTHETASE, PUTATIVE): 0.9
- fold change - vehicle control (protein TB427.07.5560 GLUCOSAMINE-FRUCTOSE-6-PHOSPHATE AMINOTRANSFERASE, PUTATIVE): 0.84
- fold change - vehicle control (protein TB427.07.5890 HY[…], CONSERVED): 0.79
- fold change - vehicle control (protein TB427.07.7070 HY[…], CONSERVED): 0.62
- fold change - vehicle control (protein TB427.07.7460 HY[…], CONSERVED): 0.91
- fold change - vehicle control (protein TB427.08.1500 HY[…], CONSERVED): 0.95
- fold change - vehicle control (protein TB427.08.1840 HY[…], CONSERVED): 0.95
- fold change - vehicle control (protein TB427.08.1960 HY[…], CONSERVED): 0.78
- fold change - vehicle control (protein TB427.08.2080 HY[…], CONSERVED): 1.08
- fold change - vehicle control (protein TB427.08.3750 NUCLEOLAR PROTEIN, PUTATIVE): 0.92
- fold change - vehicle control (protein TB427.08.6390 LYSOPHOSPHOLIPASE, PUTATIVE): 1.03
- fold change - vehicle control (protein TB427.10.10610 PROTEIN TYROSINE PHOSPHATASE, PUTATIVE): 0.69
- fold change - vehicle control (protein TB427.10.1100 60S RIBOSOMAL PROTEIN L9, PUTATIVE): 0.86
- fold change - vehicle control (protein TB427.10.12740): 0.9
- fold change - vehicle control (protein TB427.10.14660 HY[…], CONSERVED): 1.05
- fold change - vehicle control (protein TB427.10.15720 […]-ATP-ASE SUBUNIT 9): 0.82
- fold change - vehicle control (protein TB427.10.2440 METACASPASE MCA4): 0.84
- fold change - vehicle control (protein TB427.10.2900 IMPORTIN BETA-1 SUBUNIT, PUTATIVE): 0.79
- fold change - vehicle control (protein TB427.10.3470 HY[…], CONSERVED): 0.74
- fold change - vehicle control (protein TB427.10.4110 60S RIBOSOMAL PROTEIN L30): 0.91
- fold change - vehicle control (protein TB427.10.4610 […]-MANNOSE SYNTHASE, PUTATIVE): 0.85
- fold change - vehicle control (protein TB427.10.5250 HY[…], CONSERVED): 0.82
- fold change - vehicle control (protein TB427.10.5840 T[…] 1-BETA, PUTATIVE): 0.65
- fold change - vehicle control (protein TB427.10.7410 SUCCINYL-COA LIGASE GDP-FORMING] BETA-CHAIN, PUTATIVE): 0.85
- fold change - vehicle control (protein TB927.10.12960 RAS-RELATED PROTEIN RAB-5): 0.9
- fold change - vehicle control (protein TB927.10.14800 PROTEIN KINASE, PUTATIVE): 1.09
- fold change - vehicle control (protein TB927.10.2980 […]-ATPASE SUBUNIT 11): 1.07
- fold change - vehicle control (protein TB927.10.3660 ASPARTATE AMINOTRANSFERASE): 0.86
- fold change - vehicle control (protein TB927.10.4570 […] 2): 0.66
- fold change - vehicle control (protein TB927.10.5140 PROTEIN KINASE, PUTATIVE): 1.06
- fold change - vehicle control (protein TB927.10.560 40S RIBOSOMAL PROTEINS S11, PUTATIVE): 0.95
- fold change - vehicle control (protein TB927.10.6510 CHAPERONIN HSP60, MIT[…]): 0.86
- fold change - vehicle control (protein TB927.3.1840 3-OXO-5-ALPHA-STEROID 4-DEHYDROGENASE, PUTATIVE): 0.92
- fold change - vehicle control (protein TB927.3.3780 TRYPAREDOXIN): 0.85
- fold change - vehicle control (protein TB927.3.740 HY[…], CONSERVED): 0.91
- fold change - vehicle control (protein TB927.4.2740 HY[…], CONSERVED): 1.05
- fold change - vehicle control (protein TB927.4.3590 T[…] 1-BETA, PUTATIVE): 0.69
- fold change - vehicle control (protein TB927.6.4320 HY[…], CONSERVED): 0.75
- fold change - vehicle control (protein TB927.7.2550 […] SUBUNIT 5): 0.86
- fold change - vehicle control (protein TB927.7.2980 HY[…], CONSERVED): 0.75
